EC50 and IC50 data for eleven compounds are collected here from ChEMBL document CHEMBL6078660, “Goondomycins A-H: Carbocyclic ansa-Polyketides from an Australian Pasture Streptomyces with Selective Activity against Dirofilaria immitis” (J Nat Prod, 2024).

The test system of one series is Haemonchus contortus. Put plainly: Anthelmintic activity against Haemonchus contortus L1 to L3 stage assessed as larvae development incubated for 4 days. The series is classed as functional, organism-based. The settings on record: 96 h.
Series [1] can be described thus: Cytotoxicity against human SW620 cells incubated for 24 hrs by MTT assay. The series is classed as toxicity, cell-based, SW-620. (In general: Tetrazolium dyes change colour on reduction, which living cells bring about.)
A short description of series [2]: Cytotoxicity against human NCI-H460 cells incubated for 24 hrs by MTT assay. The series is classed as toxicity, cell-based.
A further series deals with Escherichia coli. Put plainly: Antibacterial activity against Escherichia coli ATCC 11775 assessed as inhibition of bacterial growth incubated for 24 hrs by spectrophotometer based analysis. The series is classed as functional, organism-based. As to conditions: ATCC 11775, 24 h.
The next series deals with Candida albicans. Put plainly: Antifungal activity against Candida albicans ATCC 10231 assessed as inhibition of fungal growth incubated for 48 hrs by spectrophotometer based analysis. It is filed as functional, organism-based. The settings on record: ATCC 10231, 48 h.
Another series has as its system Staphylococcus aureus. Put plainly: Antibacterial activity against Staphylococcus aureus ATCC 25923 assessed as inhibition of bacterial growth incubated for 24 hrs by spectrophotometer based analysis. The series is classed as functional, organism-based. As to conditions: ATCC 25923, 24 h.
Series [3] has as its system Dirofilaria immitis. Put plainly: Anthelmintic activity against Dirofilaria immitis microfilaria stage assessed as inhibition of motility incubated for approximately 72 hrs. The series is classed as functional, organism-based.
Series [4] relates to Dirofilaria immitis. Put plainly: Anthelmintic activity against Dirofilaria immitis L4 stage assessed as inhibition of motility incubated for approximately 72 hrs. The series is classed as functional, organism-based.

Structures are written as SMILES. Peptide text beside a SMILES is read from it. * marks the point of attachment. NHCH2CH2OH = OCCN*; For = O=C*

For `CC[C@H](C)[C@H]1O[C@]2(CC[C@@H]1C)C[C@@H]1C[C@@H](C/C=C(\C)[C@@H](O[C@H]3C[C@H](OC)[C@@H](O[C@H]4C[C@H](OC)[C@@H](O)[C@H](C)O4)[C@H](C)O3)[C@@H](C)/C=C/C=C3\CO[C@@H]4[C@H](O)C(C)=C[C@@H](C(=O)O1)[C@]34O)O2`, in the series on Haemonchus contortus, the concentration for a half-maximal effect (EC50) – broadly, the concentration needed to bring the measured effect to its halfway point – was determined as 0.001 µM.

For the compound `CC1=C2O[C@]3(O)C(N)=C2C(=C(O)C1=O)[C@@H]1O[C@@H](CC[C@H](C)/C=C(\C)C[C@@H](C)C[C@@H]3C)[C@H](C)[C@H](O)[C@@H]1C`, the IC50 at 24 h in series [1] and in series [2] was over 30 µM throughout. Further, the half-maximal inhibitory concentration (IC50) (commonly the concentration that inhibits the measured activity by half) is over 30 µM in the series on Escherichia coli, over 30 µM with Candida albicans and at least 3.6 µM with Staphylococcus aureus. For the same compound, the values for the EC50 in the series on Dirofilaria immitis [3], in the series with Dirofilaria immitis [4] and in the series on Haemonchus contortus were 0.5 µM, 5 µM and 24 µM, respectively.

For `CSC1=C2C3=C(C)C(=O)C(O)=C2[C@@H]2O[C@@H](CC[C@H](C)/C=C(\C)C[C@@H](C)C[C@H](C)[C@]1(O)O3)[C@H](C)[C@H](O)[C@@H]2C`, the figures for the IC50 at 24 h in series [1] and in series [2] were 2.4 µM and 13.5 µM, respectively. Also, the half-inhibitory concentration (IC50) in the series with Escherichia coli is over 30 µM; in the series with Candida albicans, over 30 µM; in the series on Staphylococcus aureus, at least 3.6 µM. In addition, the concentration giving a half-maximal response (EC50) in the series with Dirofilaria immitis [3] turned out to be 0.3 µM; in the series on Dirofilaria immitis [4], 1.4 µM; with Haemonchus contortus, 30 µM.

As to `C/C1=C\[C@@H](C)CC[C@@H]2O[C@@H](c3c(O)c(O)c(C)c4c3C(=O)[C@@](O)(O4)[C@@H](C)C[C@H](C)C1)[C@@H](C)[C@@H](O)[C@H]2C`, the IC50 at 24 h in series [1] and in series [2] was over 30 µM each time. Further, the IC50 was over 30 µM with Escherichia coli, over 30 µM in the series on Candida albicans and at least 3.6 µM in the series on Staphylococcus aureus. Also, the concentration giving a half-maximal response (EC50) with Dirofilaria immitis [3] was 1.3 µM; with Dirofilaria immitis [4] it was 24 µM; with Haemonchus contortus, 50 µM.

With `CC1=c2oc3c(O)c2=C(C(=O)C1=O)[C@@H]1O[C@@H](CC[C@H](C)/C=C(\C)C[C@@H](C)C[C@@H]3C)[C@H](C)[C@H](O)[C@@H]1C`, the IC50 at 24 h in series [1] and in series [2] was over 30 µM in each case. The results for the IC50 in the series on Escherichia coli, with Candida albicans and in the series with Staphylococcus aureus were over 30 µM, over 30 µM and at least 3.6 µM, respectively. Further, the results for the EC50 in the series with Dirofilaria immitis [3], in the series with Dirofilaria immitis [4] and with Haemonchus contortus were 0.2 µM, 1.8 µM and 43 µM, respectively.

With `CC1=C2O[C@]3(O)C=C2C(=C(O)C1=O)[C@@H]1O[C@@H](CC[C@H](C)/C=C(\C)C[C@@H](C)C[C@@H]3C)[C@H](C)[C@H](O)[C@@H]1C`, the IC50 at 24 h in series [1] and in series [2] was over 30 µM in each case. For the same compound, the values for the IC50 in the series with Escherichia coli, with Candida albicans and in the series with Staphylococcus aureus were over 30 µM, over 30 µM and at least 3.6 µM, respectively. Further, the values for the EC50 in the series on Dirofilaria immitis [3], in the series with Dirofilaria immitis [4] and with Haemonchus contortus were 4.1 µM, 18 µM and 49 µM, respectively.

Turning to `CC[C@]1([C@H]2O[C@H]([C@@H]3O[C@](O)(CO)[C@@H](C)C[C@H]3C)C[C@H]2C)CC[C@@H]([C@@]2(C)CC[C@@]3(C[C@@H](O)[C@H](C)[C@H]([C@H](C)[C@H](OC)[C@H](C)C(=O)O)O3)O2)O1`, in the series with Dirofilaria immitis [4], the EC50 was 0.4 µM.

`CC1=C(O)C(=O)c2c3sc(c2C1=O)C(=O)[C@@H](C)C[C@H](C)C/C(C)=C/[C@@H](C)CC[C@@H](O)[C@H](C)[C@H](O)[C@@H]3C`: the half-inhibitory concentration (IC50) at 24 h in series [1] and in series [2] was over 30 µM each time. Further, the IC50 was over 30 µM in the series with Escherichia coli, over 30 µM with Candida albicans and at least 3.6 µM in the series on Staphylococcus aureus. The EC50 in the series on Dirofilaria immitis [3] worked out at 2.1 µM; in the series with Dirofilaria immitis [4], 19 µM; with Haemonchus contortus, 47 µM.

Regarding `CC1=C(O)C(=O)C2=C(C1=O)[C@H](S(=O)(=O)O)C(=O)[C@@H](C)C[C@H](C)C/C(C)=C/[C@@H](C)CC[C@@H]1O[C@@H]2[C@@H](C)[C@@H](O)[C@H]1C`, the IC50 at 24 h in series [1] and in series [2] was over 30 µM in each case. Further, the IC50 in the series with Escherichia coli is over 30 µM; in the series with Candida albicans, over 30 µM; in the series on Staphylococcus aureus, at least 3.6 µM. Besides, the concentration giving a half-maximal response (EC50) was determined as 21 µM in the series with Dirofilaria immitis [3], 44 µM in the series with Dirofilaria immitis [4] and 44 µM in the series with Haemonchus contortus.

On to `CC(=O)N[C@@H](CSC1=C2C3=C(C)C(=O)C(O)=C2[C@@H]2O[C@@H](CC[C@H](C)/C=C(\C)C[C@@H](C)C[C@H](C)[C@]1(O)O3)[C@H](C)[C@H](O)[C@@H]2C)C(=O)O`, for which the IC50 at 24 h in series [1] and in series [2] was over 30 µM in each case. In addition, the IC50 in the series with Escherichia coli was over 30 µM; with Candida albicans, over 30 µM; in the series on Staphylococcus aureus, at least 3.6 µM. For the same compound, the values for the EC50 with Dirofilaria immitis [3], in the series on Dirofilaria immitis [4] and in the series on Haemonchus contortus were 3.6 µM, 22 µM and 39 µM, respectively.

Turning to `CC(C)C[C@H](NC(=O)[C@H](C)NC(=O)CNC(=O)[C@@H](NC=O)C(C)C)C(=O)N[C@@H](C)C(=O)N[C@H](C(=O)N[C@H](C(=O)N[C@H](C(=O)N[C@@H](Cc1c[nH]c2ccccc12)C(=O)N[C@@H](CC(C)C)C(=O)N[C@@H](Cc1c[nH]c2ccccc12)C(=O)N[C@@H](CC(C)C)C(=O)N[C@@H](Cc1c[nH]c2ccccc12)C(=O)N[C@@H](CC(C)C)C(=O)N[C@@H](Cc1c[nH]c2ccccc12)C(=O)NCCO)C(C)C)C(C)C)C(C)C` (For-VGALAVVVWLWLWLW-NHCH2CH2OH), in the series on Dirofilaria immitis [3], the concentration for a half-maximal effect (EC50) came to 0.1 µM.
